According to the supplement of paper PMC10307832:

Assays:
Assay in all cases: relative viability (nuclei count vs DMSO), 5 days (fraction); higher = more cells survive
[1] = compound: O=C(C[C@H]1NCCC[C@@H]1O)Cn1cnc2cc(Br)c(Cl)cc2c1=O (racemic) [Halofuginone] + CCNC(=O)c1noc(-c2cc(C(C)C)c(O)cc2O)c1-c1ccc(CN2CCOCC2)cc1 [Luminespib] (partner 0.01 µM)
How it was run: (§1)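 Each reported value is a median over duplicate plates. It expresses relative viability: treated-well nuclei count divided by vehicle-well nuclei count. Lung cancer cell lines in 1536-well plates were dosed by pin tool a day after seeding, alone with one drug or with a fixed anchor-drug dose plus five library-drug doses (not always all listed) in √10 steps, and nuclei were counted after 5 days.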

Cediranib + Vorinostat = compound: COc1cc2c(Oc3ccc4[nH]c(C)cc4c3F)ncnc2cc1OCCCN1CCCC1 [Cediranib] + O=C(CCCCCCC(=O)Nc1ccccc1)NO [Vorinostat] (partner 1 µM)
How it was run: as §1

Cediranib + Linsitinib = compound: COc1cc2c(Oc3ccc4[nH]c(C)cc4c3F)ncnc2cc1OCCCN1CCCC1 [Cediranib] + C[C@]1(O)C[C@@H](c2nc(-c3ccc4ccc(-c5ccccc5)nc4c3)c3c(N)nccn32)C1 [Linsitinib] (partner 1 µM)
How it was run: as §1

Cediranib + Tozasertib = compound: COc1cc2c(Oc3ccc4[nH]c(C)cc4c3F)ncnc2cc1OCCCN1CCCC1 [Cediranib] + Cc1cc(Nc2cc(N3CCN(C)CC3)nc(Sc3ccc(NC(=O)C4CC4)cc3)n2)n[nH]1 [Tozasertib] (partner 0.1 µM)
How it was run: as §1

Cell Line | relative viability ([1]; first compound 0.001 µM) | relative viability ([1]; first compound 0.003162 µM) | relative viability ([1]; first compound 0.01 µM) | relative viability ([1]; first compound 0.03162 µM) | relative viability ([1]; first compound 0.1 µM) | relative viability (Cediranib + Vorinostat; first compound 0.04 µM) | relative viability (Cediranib + Vorinostat; first compound 0.1265 µM) | relative viability (Cediranib + Vorinostat; first compound 0.4 µM) | relative viability (Cediranib + Vorinostat; first compound 1.265 µM) | relative viability (Cediranib + Vorinostat; first compound 4 µM) | relative viability (Cediranib + Linsitinib; first compound 0.04 µM) | relative viability (Cediranib + Linsitinib; first compound 0.1265 µM) | relative viability (Cediranib + Linsitinib; first compound 0.4 µM) | relative viability (Cediranib + Linsitinib; first compound 1.265 µM) | relative viability (Cediranib + Linsitinib; first compound 4 µM) | relative viability (Cediranib + Tozasertib; first compound 0.04 µM) | relative viability (Cediranib + Tozasertib; first compound 0.1265 µM) | relative viability (Cediranib + Tozasertib; first compound 0.4 µM) | relative viability (Cediranib + Tozasertib; first compound 1.265 µM) | relative viability (Cediranib + Tozasertib; first compound 4 µM)
NCI-H838 | 0.366 | 0.257 | 0.335 | 0.349 | 0.158 | 0.703 | 0.712 | 0.678 | 0.763 | 0.838 | 1.06 | 1.03 | 0.956 | 0.984 | 1.03 | 0.272 | 0.264 | 0.229 | 0.297 | 0.276
NCI-H520 | 0.232 | 0.241 | 0.185 | 0.206 | 0.236 | 0.792 | 0.622 | 0.581 | 0.576 | 0.676 | 1.08 | – | 0.809 | 0.806 | 0.908 | 0.57 | 0.35 | 0.543 | – | 0.426
NCI-H2347 | 0.513 | 0.321 | 0.483 | 0.511 | 0.598 | 0.693 | 0.621 | 0.538 | 0.577 | 0.512 | 0.979 | 0.86 | 0.919 | 1 | 0.903 | 0.532 | 0.385 | 0.596 | 0.539 | 0.485
NCI-H441 | 0.352 | 0.292 | 0.487 | 0.306 | 0.213 | 0.864 | 0.825 | 0.767 | 0.824 | 0.909 | 0.445 | 0.546 | 0.524 | 0.551 | 0.652 | 0.787 | – | 0.545 | 0.55 | 0.677
NCI-H1944 | 0.647 | 0.7 | 0.763 | 0.735 | 0.313 | 0.588 | 0.694 | 0.502 | 0.53 | 0.643 | 1.38 | 1.45 | 1.14 | 1.02 | 1.12 | 0.255 | 0.264 | 0.244 | 0.24 | 0.266
NCI-H2405 | 0.797 | 0.691 | 0.72 | 0.688 | 0.663 | 0.995 | 0.928 | 0.983 | 1.03 | 1.21 | 1 | 1.25 | 0.838 | 1.06 | 0.836 | 0.75 | 0.88 | 0.717 | 0.778 | 0.757
HCC-15 | 0.307 | 0.311 | 0.653 | 0.453 | 0.317 | 0.814 | – | 0.821 | 0.907 | 0.916 | 0.873 | – | 0.793 | 0.947 | 1.02 | 0.507 | – | 0.391 | 0.36 | 0.358
